Data published in patent US12036312B2, “Non-aqueous topical compositions comprising a halogenated salicylanilide” (priority 2016, dated 2024).
In brackets after ≈: the same amount, converted by molar mass. Where two headings read alike, the source gives them in different places.

System: P. acnes
Experiment: MIC by agar dilution, Propionibacterium acnes
Type: cell-based
Details: Cutibacterium acnes
Procedure: The strains of P. acnes used were CSS3288, CSS 3023, 998, and 1044 obtained from Luc Dubreuil. P. acnes strains are grown on Brucella blood agar with hemin and vitamin K [1], plates are incubated 48 to 72 hours at 35-37° C. under anaerobic conditions. Brucella blood agar with hemin and vitamin K was prepared as follows: sterile Brucella agar with hemin and vitamin K was tempered to 50-54° C. and the medium was supplemented with 5% lacked horse blood and poured in Petri dishes. Broth cultures are performed in Wilkins-Chalgren broth. All cultures are done under anaerobic conditions in an anaerobic chamber. Agar media was inoculated for single-colony isolation using sterile disposable loops. The MICs of the antibacterial agents was determined by agar dilution. […] Brucella Blood Agar with hemin and vitamin K plates containing series of two-fold dilutions of antibacterial agents were prepared. The base agar was prepared and tempered to 50-54° C. Then the blood supplement and the antibiotics were added and the 7 ml were aseptically poured into six-well culture plates. Once the agar had solidified it was transferred into the anaerobe chamber for 24 hours before use to allow for pre-reduction. Twenty-five microliters of P. acnes culture containing 10^6 CFU of were spotted in each well. The plates were incubated anaerobically for 72 hours at 35-37° C. The MIC is the lowest concentration that inhibits growth of P. acnes.

[1] = P. acnes, agar dilution, anaerobic, 72 hours, read-out: MIC

## CC(=O)O[C@H]1C[C@@]2(C)[C@@H](C[C@@H](O)[C@H]3[C@@]4(C)CC[C@@H](O)[C@@H](C)[C@@H]4CC[C@@]32C)/C1=C(\CCC=C(C)C)C(=O)O [Fusidic acid, fusidic acid]
[1]
  MIC: 4 µg/mL (≈ 7.74 µM)

## O=C(Nc1ccc([N+](=O)[O-])cc1Cl)c1cc(Cl)ccc1O [Niclosamide, niclosamide]
[1]
  MIC: 0.5 µg/mL (≈ 1.53 µM)

## C=C[C@]1(C)C[C@@H](OC(=O)CS[C@@H]2C[C@H]3CC[C@@H](C2)N3C)[C@]2(C)[C@H](C)CC[C@]3(CCC(=O)[C@H]32)[C@@H](C)[C@@H]1O [Retapamulin, retapamulin]
72 h
  MIC: 0.016 µg/mL (≈ 0.0309 µM)
